Measured values: US11142535B2, “Heterocyclic compound as Syk inhibitor and/or Syk-HDAC dual inhibitor” (Hangzhou Innogate Pharma Co., Ltd., priority 2016, dated 2021)

Tests used:
[1] = biological target: SYK protein kinase (Homo sapiens (Human), UniProt P43405); test: Syk kinase activity inhibition, Caliper mobility shift assay; assay type: biochemical; conditions: Peptide FAM-P22 and ATP, 30 minutes, 28° C.
Protocol: Measure of SYK protein kinase activity was carried out by using the Caliper mobility shift assay. The compound was dissolved with DMSO and diluted with kinase buffer (20 mM HEPES pH 7.5, 0.01% Triton X-100, 5 mM MgCl2, 1 mM MnCl2, 2 mM DTT), and 5 μl of 5 times the final concentration of the compounds (10% DMSO) were added to 384 well plate. […] The mixture was incubated for 30 minutes under 28° C., and 25 μl of stop buffer (100 mM HEPES pH 7.5, 0.015% Brij-35, 0.2% Coating Reagent #3, 50 mM EDTA) was added to terminate the reaction. Conversion rate data was read by Caliper EZ Reader II (Caliper Life Sciences). Conversion rate was converted to inhibition rate data (% inhibition rate=(max−conversion rate)/(max−min)*100). The max refers to the conversion rate of the DMSO control, and min refers to the conversion rate of the enzyme-free control. The curve was drawn with the compound concentration and inhibition rate as the horizontal and vertical coordinates, and the curve was fitted with the XLFit excel add-in version 4.3.1 Software, and IC50 was calculated.

[2] = biological target: HDAC1 (Homo sapiens (Human), UniProt Q13547); test: HDAC-1 activity inhibition, fluorescence (Synergy MX); assay type: biochemical; conditions: trypsin and Ac-peptide substrate, 60 minutes, room temperature
HDAC1, sequence (Q13547 whole entry, species assumed): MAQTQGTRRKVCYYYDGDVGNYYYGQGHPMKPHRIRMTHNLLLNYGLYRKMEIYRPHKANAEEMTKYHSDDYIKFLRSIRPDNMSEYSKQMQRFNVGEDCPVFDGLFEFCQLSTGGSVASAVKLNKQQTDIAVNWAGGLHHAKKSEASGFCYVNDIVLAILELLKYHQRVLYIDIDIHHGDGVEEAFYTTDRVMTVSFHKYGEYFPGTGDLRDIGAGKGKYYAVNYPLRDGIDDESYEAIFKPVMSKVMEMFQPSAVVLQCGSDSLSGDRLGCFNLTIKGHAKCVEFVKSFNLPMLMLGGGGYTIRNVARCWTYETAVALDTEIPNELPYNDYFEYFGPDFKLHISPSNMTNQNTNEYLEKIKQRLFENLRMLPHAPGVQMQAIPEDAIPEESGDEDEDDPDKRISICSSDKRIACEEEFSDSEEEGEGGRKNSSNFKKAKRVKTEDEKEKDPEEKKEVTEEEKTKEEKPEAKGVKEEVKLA
Protocol: HDAC activity was measured by the Synergy MX Multi-Function Microplate Reader. The compounds were dissolved with DMSO, and transferred to a 384 well test plate using an Echo non-contact nanoscale sonic pipetting system. 15 μl of enzyme (HDAC1/HDAC6, respectively) solvent was added, and incubated at room temperature for 15 minutes, then 10 μl of substrate (trypsin and Ac-peptide) solution was added. […] Fluorescence intensity signal was convented into inhibition rate data (% inhibition rate=(max−fluorescence intensity)/(max−min)*100). The max refers to the fluorescence intensity of the DMSO control, and min refers to the fluorescence intensity of the enzyme-free control. The curve was drawn with the compound concentration and inhibition rate as the horizontal and vertical coordinates, and the curve was fitted with the GraphPad Prism V5.0 Software, and IC50 was calculated.

SMILES	IC50 [1]	IC50 [2]
O=C(N1CCN2c3ccc(Nc4nc(-c5ccc6cn[nH]c6c5)cn5ccnc45)cc3OC[C@H]2C1)C(F)(F)F [Compound 9R]	< 100 nM	
O=C(NO)c1ccc(NC(=O)c2cccc(-c3cn4ccnc4c(Nc4ccc(N5CCOCC5)cc4)n3)c2)cc1 [Compound 13]	< 100 nM	< 200 nM
O=C(CCCCCCn1ncc2ccc(-c3cn4ccnc4c(Nc4ccc(N5CCOCC5)cc4)n3)cc21)NO [Compound 14]	< 500 nM	< 20 nM
CN(CCCCCCC(=O)NO)c1ccc(Nc2nc(-c3ccc4cn[nH]c4c3)cn3ccnc23)cc1 [Compound 20]	< 50 nM	< 20 nM
CN(CCOCCC(=O)NO)c1ccc(Nc2nc(-c3ccc4cn[nH]c4c3)cn3ccnc23)cc1 [Compound 22]	< 50 nM	< 500 nM
CN(CCN(C)c1ncc(C(=O)NO)cn1)c1ccc(Nc2nc(-c3ccc4cn[nH]c4c3)cn3ccnc23)cc1 [Compound 23]	< 50 nM	< 30 nM
